In US6737383B1, “Herbicidal oxadiazolidines” (priority 1999, dated 2004):

Tests used:
crabgrass = assay: Test B pre/postemergence crabgrass; type: in vivo, Digitaria sanguinalis
Method in brief: (§1)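 Test chemicals in a non-phytotoxic solvent mixture with surfactant were sprayed preemergence onto planted seeds and postemergence onto plants 2 to 18 cm tall (1- to 4-leaf stage). After twelve to sixteen days in a greenhouse, injury was visually rated against untreated controls from 0 (no effect) to 10 (complete control).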

duck salad = assay: Test B flood test duck salad; type: in vivo, Heteranthera limosa
Method in brief: (§2)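 Plants were grown to the 2-leaf stage before treatment with test chemical, then held in a greenhouse for twelve to sixteen days. Injury was visually rated against untreated controls on a 0–10 scale, where 0 is no effect and 10 is complete control.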

purple nutsedge = assay: Test B pre/postemergence purple nutsedge; type: in vivo, Cyperus rotundus; conditions: for Plant response rating, Nutsedge: scale of 0 to 10 where 0 is no effect and 10 is complete control
Method in brief: as §1

surinam grass = assay: Test B pre/postemergence surinam grass; type: in vivo, Brachiaria decumbens
Method in brief: as §1

corn = assay: Test B pre/postemergence corn; type: in vivo, Zea mays
Method in brief: as §1

rape = assay: Test B pre/postemergence rape; type: in vivo, Brassica napus; conditions: for Plant response rating, Rape: scale of 0 to 10 where 0 is no effect and 10 is complete control
Method in brief: as §1

sugar beet = assay: Test B pre/postemergence sugar beet; type: in vivo, Beta vulgaris; conditions: for Plant response rating, Sugarbeets: scale of 0 to 10 where 0 is no effect and 10 is complete control
Method in brief: as §1

wheat = assay: Test B pre/postemergence wheat; type: in vivo, Triticum aestivum; conditions: for Plant response rating, Wheat: scale of 0 to 10 where 0 is no effect and 10 is complete control
Method in brief: as §1

rice = assay: Test B flood test rice; type: in vivo, Oryza sativa
Method in brief: as §2

smallflower flatsedge = assay: Test B flood test smallflower flatsedge; type: in vivo, Cyperus difformis
Method in brief: as §2

bamyardgrass = assay: Test B flood test barnyardgrass; type: in vivo, Echinochloa crus-galli
Method in brief: as §2

wild oat = assay: Test B pre/postemergence wild oat; type: in vivo, Avena fatua; conditions: for Plant response rating, Wild oats: scale of 0 to 10 where 0 is no effect and 10 is complete control
Method in brief: as §1

velvetleaf = assay: Test B pre/postemergence velvetleaf; type: in vivo, Abutilon theophrasti; conditions: for Plant response rating, Velvetleaf: scale of 0 to 10 where 0 is no effect and 10 is complete control
Method in brief: as §1

blackgrass = assay: Test B pre/postemergence blackgrass; type: in vivo, Alopecurus myosuroides
Method in brief: as §1

bedstraw = assay: Test B pre/postemergence bedstraw; type: in vivo, Galium aparine; conditions: for Plant response rating, Bedstraw: scale of 0 to 10 where 0 is no effect and 10 is complete control
Method in brief: as §1

giant foxtail = assay: Test B pre/postemergence giant foxtail; type: in vivo, Setaria faberii
Method in brief: as §1

[1] = Postemergence, Rate 250 g/ha, scale 0 to 10
[2] = Postemergence, Rate 500 g/ha, scale of 0 to 10 where 0 is no effect and 10 is complete control
[3] = Preemergence, Rate 62 g/ha, scale of 0 to 10 where 0 is no effect and 10 is complete control
[4] = Preemergence, Rate 125 g/ha, scale of 0 to 10 where 0 is no effect and 10 is complete control
[5] = Preemergence, Rate 250 g/ha, scale 0 to 10, 0 is no effect, 10 is complete control
[6] = Preemergence, Rate 500 g/ha, scale 0 to 10, 0 is no effect, 10 is complete control
[7] = Rate 62 g/ha, Postemergence, scale 0 to 10 (0 no effect, 10 complete control)
[8] = Rate 125 g/ha, Postemergence, scale 0 to 10, 0 is no effect, 10 is complete control
[9] = Rate 62 g/ha, flood test species, Pre-emergence, visual evaluation after twelve to sixteen days
[10] = Rate 125 g/ha, under heading Pre-emergence, flood test species, visual evaluation after twelve to sixteen days
[11] = Rate 250 g/ha, Pre-emergence (flood test species), scale 0 to 10, 0 is no effect, 10 is complete control
[12] = Rate 500 g/ha, Pre-emergence, flood test species, scale 0 to 10 (0 no effect, 10 complete control)

CC(C)N(C(=O)n1oc(=O)n(COC(=O)C(C)(C)C)c1=O)c1ccc(F)cc1 [Compound 462]
0: Crabgrass plant response rating (crabgrass; [1]) | Crabgrass plant response rating (crabgrass; [2]) | Plant response rating, Crabgrass (crabgrass; [3]) | Plant response rating, Crabgrass (crabgrass; [4]) | Crabgrass plant response rating (crabgrass; [5]) | Crabgrass plant response rating (crabgrass; [6]) | Crabgrass plant response rating (crabgrass; [7]) | Crabgrass plant response rating (crabgrass; [8]) | Plant response rating, Ducksalad (0 to 10 scale, 0 is no effect, 10 is complete control) (duck salad; [9]) | Ducksalad plant response rating (0 to 10 scale, 0 is no effect, 10 is complete control) (duck salad; [10]) | Ducksalad plant response rating (duck salad; [11]) | Ducksalad plant response rating (duck salad; [12]) | Nutsedge plant response rating (purple nutsedge; [1]) | Plant response rating, Nutsedge (purple nutsedge; Preemergence, Rate 62 g/ha) | Plant response rating, Nutsedge (purple nutsedge; Preemergence, Rate 125 g/ha) | Nutsedge plant response rating (purple nutsedge; [5]) | Nutsedge plant response rating (purple nutsedge; [6]) | Nutsedge plant response rating (purple nutsedge; [7]) | Nutsedge plant response rating (purple nutsedge; [8]) | B. signalgrass plant response rating (surinam grass; Postemergence, Rate 250 g/ha, scale 0 to 10, 0 no effect, 10 complete control) | B. signalgrass plant response rating (surinam grass; [2]) | Plant response rating, B. signalgrass (surinam grass; [3]) | Plant response rating, B. signalgrass (surinam grass; [4]) | B. signalgrass plant response rating (surinam grass; [5]) | B. signalgrass plant response rating (surinam grass; [6]) | B. signalgrass plant response rating (surinam grass; [7]) | B. signalgrass plant response rating (surinam grass; [8]) | Corn plant response rating (corn; [1]) | Corn plant response rating (corn; [2]) | Plant response rating, Corn (corn; [3]) | Plant response rating, Corn (corn; [4]) | Corn plant response rating (corn; [5]) | Corn plant response rating (corn; [6]) | Corn plant response rating (corn; [7]) | Corn plant response rating (corn; [8]) | Rape plant response rating (rape; [1]) | Plant response rating, Rape (rape; Preemergence, Rate 62 g/ha) | Plant response rating, Rape (rape; Preemergence, Rate 125 g/ha) | Rape plant response rating (rape; [5]) | Rape plant response rating (rape; [6]) | Rape plant response rating (rape; [7]) | Rape plant response rating (rape; [8]) | Sugarbeets plant response rating (sugar beet; [1]) | Plant response rating, Sugarbeets (sugar beet; Preemergence, Rate 62 g/ha) | Plant response rating, Sugarbeets (sugar beet; Preemergence, Rate 125 g/ha) | Sugarbeets plant response rating (sugar beet; [5]) | Sugarbeets plant response rating (sugar beet; [6]) | Sugarbeets plant response rating (sugar beet; [7]) | Sugarbeets plant response rating (sugar beet; [8]) | Wheat plant response rating (wheat; [1]) | Plant response rating, Wheat (wheat; Preemergence, Rate 62 g/ha) | Plant response rating, Wheat (wheat; Preemergence, Rate 125 g/ha) | Wheat plant response rating (wheat; [5]) | Wheat plant response rating (wheat; [6]) | Wheat plant response rating (wheat; [7]) | Wheat plant response rating (wheat; [8]) | Plant response rating, Rice (0 to 10 scale, 0 is no effect, 10 is complete control) (rice; [9]) | Rice plant response rating (0 to 10 scale, 0 is no effect, 10 is complete control) (rice; [10]) | Rice plant response rating (rice; [11]) | Rice plant response rating (rice; [12]) | Plant response rating, S. Flatsedge (0 to 10 scale, 0 is no effect, 10 is complete control) (smallflower flatsedge; [9]) | S. Flatsedge plant response rating (0 to 10 scale, 0 is no effect, 10 is complete control) (smallflower flatsedge; [10]) | S. Flatsedge plant response rating (smallflower flatsedge; [11]) | S. Flatsedge plant response rating (smallflower flatsedge; [12]) | Plant response rating, Barnyardgrass (0 to 10 scale, 0 is no effect, 10 is complete control) (bamyardgrass; [9]) | Barnyardgrass plant response rating (0 to 10 scale, 0 is no effect, 10 is complete control) (bamyardgrass; [10]) | Barnyardgrass plant response rating (bamyardgrass; [11]) | Barnyardgrass plant response rating (bamyardgrass; [12]) | Wild oats plant response rating (wild oat; [1]) | Plant response rating, Wild oats (wild oat; Preemergence, Rate 62 g/ha) | Plant response rating, Wild oats (wild oat; Preemergence, Rate 125 g/ha) | Wild oats plant response rating (wild oat; [5]) | Wild oats plant response rating (wild oat; [6]) | Wild oats plant response rating (wild oat; [7]) | Wild oats plant response rating (wild oat; [8]) | Velvetleaf plant response rating (velvetleaf; [1]) | Plant response rating, Velvetleaf (velvetleaf; Preemergence, Rate 62 g/ha) | Plant response rating, Velvetleaf (velvetleaf; Preemergence, Rate 125 g/ha) | Velvetleaf plant response rating (velvetleaf; [5]) | Velvetleaf plant response rating (velvetleaf; [6]) | Velvetleaf plant response rating (velvetleaf; [7]) | Velvetleaf plant response rating (velvetleaf; [8]) | Blackgrass plant response rating (blackgrass; [1]) | Blackgrass plant response rating (blackgrass; [2]) | Plant response rating, Blackgrass (blackgrass; [3]) | Plant response rating, Blackgrass (blackgrass; [4]) | Blackgrass plant response rating (blackgrass; [5]) | Blackgrass plant response rating (blackgrass; [6]) | Blackgrass plant response rating (blackgrass; [7]) | Blackgrass plant response rating (blackgrass; [8]) | Plant response rating, Bedstraw (bedstraw; Preemergence, Rate 62 g/ha) | Plant response rating, Bedstraw (bedstraw; Preemergence, Rate 125 g/ha) | Bedstraw plant response rating (bedstraw; [5]) | Bedstraw plant response rating (bedstraw; [6]) | Bedstraw plant response rating (bedstraw; [7]) | Bedstraw plant response rating (bedstraw; [8]) | Giant foxtail plant response rating (giant foxtail; [1]) | Giant foxtail plant response rating (giant foxtail; [2]) | Plant response rating, Giant foxtail (giant foxtail; [3]) | Plant response rating, Giant foxtail (giant foxtail; [4]) | Giant foxtail plant response rating (giant foxtail; [5]) | Giant foxtail plant response rating (giant foxtail; [6]) | Giant foxtail plant response rating (giant foxtail; [7]) | Giant foxtail plant response rating (giant foxtail; [8])
